“And” between values parts separate entries of the source, which are not always exact repeats. Equal values may be shown once.
Columns and labels:
[1] = target: T1, Recombinant human JAK3 catalytic domain (Homo sapiens, UniProt P52333); assay: JAK3 inhibition assay (polyGT substrate); format: biochemical; settings: 1 μM ATP, individual determinations, read-out: IC50 against JAK3
T1 construct: Recombinant human JAK3 catalytic domain (amino acids 781-1124; catalog number PV3855); purchased Invitrogen PV3855
T1 sequence (P52333 781-1124): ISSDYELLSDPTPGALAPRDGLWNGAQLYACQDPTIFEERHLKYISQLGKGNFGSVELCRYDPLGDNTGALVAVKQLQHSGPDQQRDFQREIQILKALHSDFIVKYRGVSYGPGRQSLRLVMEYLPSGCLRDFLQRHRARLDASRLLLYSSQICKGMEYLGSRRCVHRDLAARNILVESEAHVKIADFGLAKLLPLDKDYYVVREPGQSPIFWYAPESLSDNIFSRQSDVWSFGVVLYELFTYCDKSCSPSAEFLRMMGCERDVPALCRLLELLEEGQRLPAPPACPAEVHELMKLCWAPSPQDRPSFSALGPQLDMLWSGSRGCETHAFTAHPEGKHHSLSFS
Method: Recombinant human JAK3 catalytic domain (amino acids 781-1124; catalog number PV3855) was purchased from Invitrogen. 0.5 ng JAK3 protein was incubated with 2.5 μg polyGT substrate (Sigma catalog number P0275) in kinase reaction buffer (25 mM Tris pH 7.5, 0.5 mM EGTA, 10 mM MgCl2, 2.5 mM DTT, 0.5 mM Na3VO4, 5 mM b-glycerolphosphate, 0.01% Triton X-100, 1 μM non-radioactive ATP, 0.25 μCi ^33P-gamma-ATP (GE Healthcare, catalog number AH9968) final concentrations) with or without 5 μL containing test compound or vehicle (DMSO, 1% final concentration), in a total volume of 25 μL, in a polypropylene 96-well plate (Greiner, V-bottom). […]
6005177) using a cell harvester (Perkin Elmer). […] 40 μL/well of Microscint-20 was added, the top of the plates was sealed and readout was performed using the Topcount (Perkin Elmer). Kinase activity was calculated by subtracting counts per min (cpm) obtained in the presence of a positive control inhibitor (10 μM staurosporine) from cpm obtained in the presence of vehicle. The ability of a test compound to inhibit this activity was determined as:
(§1) Percentage inhibition=((cpm determined for sample with test compound present−cpm determined for sample with positive control inhibitor) divided by (cpm determined in the presence of vehicle−cpm determined for sample with positive control inhibitor))*100. […]

[2] = target: T2, Recombinant human TYK2 catalytic domain (Homo sapiens, UniProt P29597); assay: TYK2 inhibition assay (polyGT substrate); format: biochemical; settings: 0.1 μM ATP, individual determinations, read-out: IC50 against TYK2
T2 construct: Recombinant human TYK2 catalytic domain (amino acids 871-1187; catalog number 08-147); purchased Carna biosciences 08-147
T2 sequence (P29597 871-1187): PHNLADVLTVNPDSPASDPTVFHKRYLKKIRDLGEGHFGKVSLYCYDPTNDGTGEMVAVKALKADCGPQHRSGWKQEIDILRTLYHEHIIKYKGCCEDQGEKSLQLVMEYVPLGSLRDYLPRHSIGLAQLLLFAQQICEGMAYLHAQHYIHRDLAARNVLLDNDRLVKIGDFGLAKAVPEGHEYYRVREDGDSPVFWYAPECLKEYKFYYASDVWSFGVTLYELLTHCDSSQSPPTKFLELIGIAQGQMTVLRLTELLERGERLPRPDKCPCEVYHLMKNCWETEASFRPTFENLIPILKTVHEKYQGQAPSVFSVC
Method: Recombinant human TYK2 catalytic domain (amino acids 871-1187; catalog number 08-147) was purchased from Carna biosciences. 5 ng of TYK2 was incubated with 12.5 μg polyGT substrate (Sigma catalog number P0275) in kinase reaction buffer (25 mM Hepes pH 7.2, 50 mM NaCl, 0.5 mM EDTA, 1 mM DTT, 5 mM MnCl2, 10 mM MgCl2, 0.1% Brij-35, 0.1 μM non-radioactive ATP, 0.125 μCi ^33P-gamma-ATP (GE Healthcare, catalog number AH9968) final concentrations) with or without 5 μL containing test compound or vehicle (DMSO, 1% final concentration), in a total volume of 25 μL, in a polypropylene 96-well plate (Greiner, V-bottom). After 90 min at 30° C., reactions were stopped by adding 25 μL/well of 150 mM phosphoric acid. […] 40 μL/well of Microscint-20 was added, the top of the plates was sealed and readout was performed using the Topcount (Perkin Elmer). Kinase activity was calculated by subtracting counts per min (cpm) obtained in the presence of a positive control inhibitor (10 μM staurosporine) from cpm obtained in the presence of vehicle. The ability of a test compound to inhibit this activity was determined as:
as §1

[3] = target: T3, TYK2 (Homo sapiens, UniProt P29597); assay: TYK2 Ki determination assay (kinase tracer 236 binding); settings: binding experiment, 50 nM kinase tracer 236; read-out: Ki against TYK2
T3 construct: purchased Carna Biosciences 09CBS-0983D
T3 sequence (P29597 whole entry): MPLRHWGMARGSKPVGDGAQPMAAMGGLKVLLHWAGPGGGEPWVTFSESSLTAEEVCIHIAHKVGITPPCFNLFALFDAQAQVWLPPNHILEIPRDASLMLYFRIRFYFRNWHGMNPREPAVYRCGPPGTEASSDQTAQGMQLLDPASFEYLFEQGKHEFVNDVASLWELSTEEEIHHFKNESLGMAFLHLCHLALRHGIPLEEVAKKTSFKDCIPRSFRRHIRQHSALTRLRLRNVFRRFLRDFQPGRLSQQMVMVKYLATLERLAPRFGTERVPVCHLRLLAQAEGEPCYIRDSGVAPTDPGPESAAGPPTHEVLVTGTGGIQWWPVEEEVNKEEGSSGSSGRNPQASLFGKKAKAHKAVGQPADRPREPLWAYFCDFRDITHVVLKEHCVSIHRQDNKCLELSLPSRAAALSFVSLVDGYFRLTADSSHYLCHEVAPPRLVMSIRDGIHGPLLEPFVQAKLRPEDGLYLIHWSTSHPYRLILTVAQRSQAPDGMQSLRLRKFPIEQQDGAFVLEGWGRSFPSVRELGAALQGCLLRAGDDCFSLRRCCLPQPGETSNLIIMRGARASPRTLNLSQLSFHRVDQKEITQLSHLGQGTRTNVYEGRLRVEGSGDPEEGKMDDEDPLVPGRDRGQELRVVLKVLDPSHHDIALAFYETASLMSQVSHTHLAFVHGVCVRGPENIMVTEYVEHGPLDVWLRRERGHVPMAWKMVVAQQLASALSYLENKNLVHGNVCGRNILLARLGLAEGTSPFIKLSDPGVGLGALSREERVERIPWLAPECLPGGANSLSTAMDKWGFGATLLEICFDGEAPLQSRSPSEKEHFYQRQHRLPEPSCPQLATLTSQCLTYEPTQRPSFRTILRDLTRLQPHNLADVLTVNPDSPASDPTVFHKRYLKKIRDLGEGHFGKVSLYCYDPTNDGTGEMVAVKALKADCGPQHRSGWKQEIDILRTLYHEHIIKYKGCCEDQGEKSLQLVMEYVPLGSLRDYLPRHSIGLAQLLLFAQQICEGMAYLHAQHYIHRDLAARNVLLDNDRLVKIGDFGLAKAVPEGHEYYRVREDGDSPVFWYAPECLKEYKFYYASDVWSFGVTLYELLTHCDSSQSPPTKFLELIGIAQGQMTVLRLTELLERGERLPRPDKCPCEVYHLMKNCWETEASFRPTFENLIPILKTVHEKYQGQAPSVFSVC
Method: TYK2 (Carna Biosciences, 09CBS-0983D) was used at a final concentration of 5 nM. The binding experiment was performed in 50 mM Hepes pH 7.5, 0.01% Brij-35, 10 mM MgCl2, 1 mM EGTA using 50 nM kinase tracer 236 (Invitrogen, PV5592) and 2 nM Eu-anti-GST (Invitrogen, PV5594) with varying compound concentrations. Detection of tracer was performed according to the manufacturers’ procedure.

CCc1cc(C2CN(S(C)(=O)=O)C2)ncc1N(C)c1cc2c(cn1)ncn2C [Compound 1, [4-Ethyl-6-(1-methanesulfonyl-azetidin-3-yl)-pyridin-3-yl]-methyl-(1-methyl-1H-imidazo[4,5-d]pyridin-6-yl)-amine]
IC50 [1]: 1320 nM and 523 nM and 460 nM and 345 nM and 689 nM and 685 nM and 515 nM and 324 nM and 537 nM
IC50 [2]: 844 nM and 461 nM and 470 nM and 488 nM and 759 nM and 754 nM and 1000 nM and 501 nM and 688 nM
Ki [3]: 336 nM

From patent publication US20140213576A1, “NOVEL COMPOUND USEFUL FOR THE TREATMENT OF DEGENERATIVE AND INFLAMMATORY DISEASES” (GALAPAGOS NV, priority 2013, published 2014)
